Results: the NIST ThermoML archive (doi:10.1021/acs.jced.7b01101)
Numbers after ± are expanded uncertainties.

What was measured:
[1] = 100 kPa, Liquid; for viscosity: Concentric cylinders viscometry
[2] = refractive index (Na D-line) (dimensionless); conditions: 293.15 K; 100 kPa; Liquid; Standard Abbe refractometry
[3] = an = ratio of the nth substance listed; conditions: 100 kPa, Liquid; for electrical conductivity: 293.15 K, Alternating current cell with electrodes; for viscosity / mass density: 298.15 K; for viscosity: Concentric cylinders viscometry; for mass density: Vibrating tube method
[4] = wn = mass fraction of the nth substance listed; conditions: 100 kPa, Liquid; for electrical conductivity: 293.15 K, Alternating current cell with electrodes; for viscosity / mass density: 298.15 K; for viscosity: Concentric cylinders viscometry; for mass density: Vibrating tube method
[5] = refractive index (Na D-line) (dimensionless); an = ratio of the nth substance listed; conditions: 293.15 K, 100 kPa, Liquid, Standard Abbe refractometry
[6] = refractive index (Na D-line) (dimensionless); wn = mass fraction of the nth substance listed; conditions: 293.15 K, 100 kPa, Liquid, Standard Abbe refractometry

NCCO [2-aminoethan-1-ol]
electrical conductivity ([1]; 293.15 K, Alternating current cell with electrodes): 0.0031 ± 0.0003 S/m | viscosity ([1]; 298.15 K): 18.75 ± 2.8 mPa·s | mass density ([1]; 298.15 K, Vibrating tube method): 1012 ± 1 kg/m3 | refractive index [2]: 1.456 ± 0.002

NCCO [2-aminoethan-1-ol] + O
electrical conductivity ([3]; a2 = 1.5): 0.046 ± 0.005 S/m | electrical conductivity ([3]; a2 = 2.333): 0.072 ± 0.007 S/m | electrical conductivity ([3]; a2 = 4): 0.102 ± 0.01 S/m | viscosity ([3]; a2 = 1.5): 3.5 ± 0.53 mPa·s | viscosity ([3]; a2 = 2.333): 2.6 ± 0.39 mPa·s | viscosity ([3]; a2 = 4): 1.7 ± 0.26 mPa·s | mass density ([3]; a2 = 1.5): 1018.3 ± 1 kg/m3 | mass density ([3]; a2 = 2.333): 1012.9 ± 1 kg/m3 | mass density ([3]; a2 = 4): 1007.1 ± 1 kg/m3 | electrical conductivity ([4]; w1 = 0.2): 0.102 ± 0.012 S/m | electrical conductivity ([4]; w1 = 0.3): 0.072 ± 0.0091 S/m | electrical conductivity ([4]; w1 = 0.4): 0.0461 ± 0.0063 S/m | electrical conductivity ([4]; w1 = 0.5): 0.029 ± 0.0045 S/m | electrical conductivity ([4]; w1 = 0.6): 0.0111 ± 0.0023 S/m | electrical conductivity ([4]; w1 = 0.7): 0.0089 ± 0.0012 S/m | electrical conductivity ([4]; w1 = 0.8): 0.0034 ± 0.0007 S/m | electrical conductivity ([4]; w1 = 0.9): 0.0032 ± 0.0003 S/m | electrical conductivity ([4]; w1 = 1): 0.0031 ± 0.0003 S/m | viscosity ([4]; w1 = 0.2): 1.7 ± 0.28 mPa·s | viscosity ([4]; w1 = 0.3): 2.6 ± 0.43 mPa·s | viscosity ([4]; w1 = 0.4): 3.5 ± 0.6 mPa·s | viscosity ([4]; w1 = 0.5): 5.4 ± 1 mPa·s | viscosity ([4]; w1 = 0.6): 9.67 ± 1.6 mPa·s | viscosity ([4]; w1 = 0.7): 12.26 ± 2.1 mPa·s | viscosity ([4]; w1 = 0.8): 20.39 ± 3.1 mPa·s | viscosity ([4]; w1 = 0.9): 19.45 ± 2.9 mPa·s | viscosity ([4]; w1 = 1): 18.75 ± 2.8 mPa·s | mass density ([4]; w1 = 0.2): 1007.1 ± 1.5 kg/m3 | mass density ([4]; w1 = 0.3): 1012.9 ± 1.5 kg/m3 | mass density ([4]; w1 = 0.4): 1018.3 ± 1.4 kg/m3 | mass density ([4]; w1 = 0.5): 1022.1 ± 1.2 kg/m3 | mass density ([4]; w1 = 0.6): 1025.1 ± 1.1 kg/m3 | mass density ([4]; w1 = 0.7): 1026.5 ± 1 kg/m3 | mass density ([4]; w1 = 0.8): 1024.7 ± 1.2 kg/m3 | mass density ([4]; w1 = 0.9): 1020.4 ± 1.6 kg/m3 | mass density ([4]; w1 = 1): 1012 ± 1 kg/m3 | refractive index ([5]; a2 = 1.5): 1.3854 ± 0.002 | refractive index ([5]; a2 = 2.333): 1.372 ± 0.002 | refractive index ([5]; a2 = 4): 1.3587 ± 0.002 | refractive index ([6]; w1 = 0.2): 1.3587 ± 0.0033 | refractive index ([6]; w1 = 0.3): 1.3718 ± 0.0033 | refractive index ([6]; w1 = 0.4): 1.3852 ± 0.0033 | refractive index ([6]; w1 = 0.5): 1.3975 ± 0.0034 | refractive index ([6]; w1 = 0.6): 1.4126 ± 0.0033 | refractive index ([6]; w1 = 0.7): 1.423 ± 0.0032 | refractive index ([6]; w1 = 0.8): 1.4368 ± 0.0029 | refractive index ([6]; w1 = 0.9): 1.4444 ± 0.0028 | refractive index ([6]; w1 = 1): 1.456 ± 0.002

O [water]
viscosity ([1]; 298.15 K): 0.89 ± 0.13 mPa·s | refractive index [2]: 1.333 ± 0.002

O [water] + NCCO
viscosity ([4]; w2 = 0): 0.89 ± 0.13 mPa·s | refractive index ([6]; w2 = 0): 1.333 ± 0.002
